Laboratory results reported in ChEMBL document CHEMBL6109117, “Synthesis of an RBM39 Degrader That Downregulates CEP192 and Induces Disorganized Spindle Structures” (J Med Chem, 2025).
Active and inactive are the calls of the source. No cut-off for these calls is given here.

Tests used:
MOLM-13 [1] = test: Induction of RBM39 degradation in human MOLM-13 cells incubated for 24 hrs by Western blot analysis; assay type: cell-based
MOLM-13 [2] = test: Antiproliferative activity against human MOLM-13 cells assessed as inhibition of cell growth incubated for 4 days by CCK8 assay; assay type: functional, cell-based; conditions: time 4.0 day
HCT-116 [3] = test: Effect on DCAF15 expression in human HCT-116 cells at 0.1 to 5 uM incubated for 24 hrs by Western blot analysis; assay type: functional, cell-based; conditions: dose 0.1-5 µM
[4] = Effect on RNA splicing in human K562 cells assessed as alternative 3' splice sites at 2 uM incubated for 12 hrs by RNA-seq analysis relative to control; assay type: functional
HCT-116 [5] = test: Effect on RNA splicing in human HCT-116 cells assessed as CEP192 gene retention of introns up to 10 uM by PCR analysis; assay type: functional, cell-based; conditions: time 1-24 hrs
HCT-116 [6] = test: Induction of spliceosome function impairment in human HCT-116 cells assessed as fold decrease in ZNF207 exon8-exon9 RNA level at 1 to 10 uM incubated for 12 hrs by qRT-PCR analysis relative to control; assay type: functional; conditions: dose 1-10 µM
[7] = Effect on RNA splicing in human K562 cells assessed as mutually exclusive exons at 2 uM incubated for 12 hrs by RNA-seq analysis relative to control; assay type: functional
HL-60 [8] = test: Effect on RNA splicing in human HL-60 cells assessed as CEP192 gene skipping exons incubated for 12 hrs by PCR analysis; assay type: functional, cell-based; conditions: dose 0.1-10 µM
HCT-116 [9] = test: Effect on RNA splicing in human HCT-116 cells assessed as CEP192 gene skipping exons up to 10 uM by PCR analysis; assay type: functional, cell-based; conditions: time 1-24 hrs
CEM/C1 [10] = test: Effect on RNA splicing in human CEM/C1 cells assessed as CEP192 gene skipping exons incubated for 12 hrs by PCR analysis; assay type: functional, cell-based; conditions: dose 0.1-10 µM
K562 [11] = test: Antiproliferative activity against human K562 cells assessed as inhibition of cell growth incubated for 4 days by CCK8 assay; assay type: functional, cell-based; conditions: time 4.0 day
CEM/C1 [12] = test: Effect on RNA splicing in human CEM/C1 cells assessed as CEP192 gene retention of introns incubated for 12 hrs by PCR analysis; assay type: functional, cell-based; conditions: dose 0.1-10 µM
HL-60 [13] = test: Induction of RBM39 degradation in human HL-60 cells incubated for 24 hrs by Western blot analysis; assay type: cell-based
MV4-11 [14] = test: Induction of RBM39 degradation in human MV4-11 cells incubated for 24 hrs by Western blot analysis; assay type: cell-based
RS4-11 [15] = test: Effect on RNA splicing in human RS4;11 cells assessed as CEP192 gene skipping exons incubated for 12 hrs by PCR analysis; assay type: functional, cell-based; conditions: dose 0.1-10 µM
HCT-116 [16] = test: Induction of spliceosome function impairment in human HCT-116 cells assessed as fold increase in CUL4A RI transcript at 1 to 10 uM incubated for 12 hrs by qRT-PCR analysis relative to control; assay type: functional; conditions: dose 1-10 µM
[17] = AUC (0 to t) in ICR mouse at 15 mg/kg, po; assay type: ADME, organism-based; conditions: in vivo
MV4-11 [18] = test: Effect on RNA splicing in human MV4-11 cells assessed as CEP192 gene skipping exons incubated for 12 hrs by PCR analysis; assay type: functional, cell-based; conditions: dose 0.1-10 µM
RS4-11 [19] = test: Antiproliferative activity against human RS4;11 cells assessed as inhibition of cell growth incubated for 4 days by CCK8 assay; assay type: functional, cell-based; conditions: time 4.0 day
HCT-116 [20] = test: Effect on RNA splicing in human HCT-116 cells assessed as CEP192 gene skipping exons at 2 uM incubated for 12 hrs by RNA-seq analysis; assay type: functional, cell-based
Kasumi 1 [21] = test: Antiproliferative activity against human Kasumi 1 cells assessed as inhibition of cell growth incubated for 4 days by CCK8 assay; assay type: functional, cell-based; conditions: time 4.0 day
K562 [22] = test: Effect on RNA splicing in human K562 cells assessed as CEP192 gene skipping exons incubated for 12 hrs by PCR analysis; assay type: functional, cell-based; conditions: dose 0.1-10 µM
K562 [23] = test: Effect on RNA splicing in human K562 cells assessed as CEP192 gene retention of introns incubated for 12 hrs by PCR analysis; assay type: functional, cell-based; conditions: dose 0.1-10 µM
HL-60 [24] = test: Effect on RNA splicing in human HL-60 cells assessed as CEP192 gene retention of introns incubated for 12 hrs by PCR analysis; assay type: functional, cell-based; conditions: dose 0.1-10 µM
MOLM-13 [25] = test: Effect on RNA splicing in human MOLM-13 cells assessed as CEP192 gene retention of introns incubated for 12 hrs by PCR analysis; assay type: functional, cell-based; conditions: dose 0.1-10 µM
HCT-116 [26] = test: Induction of cell cycle arrest in human HCT-116 cells assessed as accumulation at G2/M phase at 1 uM incubated for 72 hrs by PI staining based flow cytometry relative to control; assay type: functional
[27] = Cmax in ICR mouse at 15 mg/kg, po; assay type: ADME, organism-based; conditions: in vivo
[28] = Effect on RNA splicing in human K562 cells assessed as number of alternative 3' splice sites at 2 uM incubated for 12 hrs by RNA-seq analysis; assay type: functional
[29] = Effect on RNA splicing in human K562 cells assessed as number of alternative 5' splice sites at 2 uM incubated for 12 hrs by RNA-seq analysis; assay type: functional
K562 [30] = test: Induction of RBM39 degradation in human K562 cells incubated for 24 hrs by Western blot analysis; assay type: cell-based; conditions: dose 1-10 µM
[31] = Effect on RNA splicing in human K562 cells assessed as skipping exons at 2 uM incubated for 12 hrs by RNA-seq analysis relative to control; assay type: functional
Kasumi 1 [32] = test: Effect on RNA splicing in human Kasumi 1 cells assessed as CEP192 gene skipping exons incubated for 12 hrs by PCR analysis; assay type: functional, cell-based; conditions: dose 0.1-10 µM
[33] = Effect on RNA splicing in human K562 cells assessed as number of retention of introns at 2 uM incubated for 12 hrs by RNA-seq analysis; assay type: functional
CEM/C1 [34] = test: Antiproliferative activity against human CEM/C1 cells assessed as inhibition of cell growth incubated for 4 days by CCK8 assay; assay type: functional, cell-based; conditions: time 4.0 day
CEM/C1 [35] = test: Induction of RBM39 degradation in human CEM/C1 cells incubated for 24 hrs by Western blot analysis; assay type: cell-based
HCT-116 [36] = test: Induction of spliceosome function impairment in human HCT-116 cells assessed as fold increase in NCKAP1L RI transcript at 1 to 10 uM incubated for 12 hrs by qRT-PCR analysis relative to control; assay type: functional; conditions: dose 1-10 µM
HL-60 [37] = test: Antiproliferative activity against human HL-60 cells assessed as inhibition of cell growth incubated for 4 days by CCK8 assay; assay type: functional, cell-based; conditions: time 4.0 day
RS4;11 = test: Induction of RBM39 degradation in human RS4;11 cells incubated for 24 hrs by Western blot analysis; assay type: cell-based
[38] = Effect on RNA splicing in human K562 cells assessed as alternative 5' splice sites at 2 uM incubated for 12 hrs by RNA-seq analysis relative to control; assay type: functional
HCT-116 [39] = test: Antitumor activity against human HCT-116 cells xenografted in BALB/c nude mouse at 150 mg/kg, po qd treated for 17 days relative to control; assay type: functional; conditions: HCT-116, 408 h, time 17 day, read-out: TGI
HCT-116 [40] = test: Induction of spliceosome function impairment in human HCT-116 cells assessed as decrease in ZNF207 exon8-exon9 RNA level at 1 to 10 uM incubated for 12 hrs by qRT-PCR analysis; assay type: functional, cell-based; conditions: dose 1-10 µM
HCT-116 [41] = test: Induction of spliceosome function impairment in human HCT-116 cells assessed as increase in NCKAP1L RI transcript at 1 to 10 uM incubated for 12 hrs by qRT-PCR analysis; assay type: functional, cell-based; conditions: dose 1-10 µM

With `Cc1ccc(NS(=O)(=O)c2cccc(NC(=O)C(=O)N3CCC[C@@H]3CO)c2)c2[nH]cc(C#N)c12` the Activity (MOLM-13 [1]) was “Dose-dependent-effect”, the inhibition (MOLM-13 [2]) was “Active” and the Activity (HCT-116 [3]) was “inactive”. For the same molecule, the Activity [4] was 7.1%, the Activity (HCT-116 [5]) was “Time-dependent-effect; Observed Retention Of Introns Between Exons 27 And 28” and the “fold change (FC)” value (HCT-116 [6]) was 10. For the same molecule, the Activity [7] was 10.3%, the Activity (HL-60 [8]) was “Dose-dependent-effect; Observed Skipping Of Exons 42, 28 And 13” and the Activity (HCT-116 [9]) was “Time-dependent-effect; Observed Skipping Of Exons 42, 28 And 13”. The Activity (CEM/C1 [10]) was “Dose-dependent-effect; Observed Skipping Of Exons 42, 28 And 13”, the inhibition (K562 [11]) was “Active” and the Activity (CEM/C1 [12]) was “Dose-dependent-effect; Observed Retention Of Introns Between Exons 27 And 28”. For the same molecule, the Activity (HL-60 [13]) was “Dose-dependent-effect”, the Activity (MV4-11 [14]) was “Dose-dependent-effect” and the Activity (RS4-11 [15]) was “Dose-dependent-effect; Observed Skipping Of Exons 42, 28 And 13”. The “fold change (FC)” value (HCT-116 [16]) was 3, the AUC(0-t) [17] was 3480 ng·h/mL and the Activity (MV4-11 [18]) was “Dose-dependent-effect; Observed Skipping Of Exons 42, 28 And 13”. For the same molecule, the inhibition (RS4-11 [19]) was “Active”, the Activity (HCT-116 [20]) was “Active; Observed Skipping Of Exons 42, 28 And 13” and the inhibition (Kasumi 1 [21]) was “Active”. The Activity (K562 [22]) was “Dose-dependent-effect; Observed Skipping Of Exons 42, 28 And 13”, the Activity (K562 [23]) was “Dose-dependent-effect; Observed Retention Of Introns Between Exons 27 And 28” and the Activity (HL-60 [24]) was “Dose-dependent-effect; Observed Retention Of Introns Between Exons 27 And 28”. The Activity (MOLM-13 [25]) was “Dose-dependent-effect; Observed Retention Of Introns Between Exons 27 And 28”, the Activity (HCT-116 [26]) was 66% and the Cmax [27] was 2120 ng/mL. For the same molecule, the Activity [28] was 1232, the Activity [29] was 633 and the Activity (K562 [30]) was “Dose-dependent-effect”. The Activity [31] was 70.6%, the Activity (Kasumi 1 [32]) was “Dose-dependent-effect; Observed Skipping Of Exons 42, 28 And 13” and the Activity [33] was 1454. For the same molecule, the inhibition (CEM/C1 [34]) was “Active”, the Activity (CEM/C1 [35]) was “Dose-dependent-effect” and the “fold change (FC)” value (HCT-116 [36]) was 3. For the same molecule, the inhibition (HL-60 [37]) was “Active”, the Activity (RS4;11) was “Dose-dependent-effect” and the Activity [38] was 3.6%. It also gave an inhibition in vivo at 150 mg/kg (HCT-116 [39]) of 72%.

With `NS(=O)(=O)c1ccc(S(=O)(=O)Nc2cccc3c(Cl)c[nH]c23)cc1` [INDISULAM] the Activity (HCT-116 [40]) was “Active” and the Activity (HCT-116 [41]) was “Active”.
